Patent US20160340334A1, “METHOD FOR ISOLATION OF ALKALOIDS AND AMINO ACIDS, AND CO[…] ALKALOIDS AND AMINO ACIDS” (priority 2015, published 2016)

Experiments:
[1] = system: migraine; details: tryptophan administered in the form of 5-HTP; cited from earlier work
[2] = system: models of Parkinson's disease; details: intermittent nicotine treatment; cited from earlier work
[3] = nicotine after extraction (Example 1); clinical studies

For N[C@@H](Cc1c[nH]c2ccc(O)cc12)C(=O)O [5-HTP, 5-Hydroxytryptophan], the “aborting or significantly mitigating pain after onset of a migraine” value [1] is given as “ineffective” and the “effect in migraine prevention” value [1] is given as “only moderate effects”.
In the case of CN1CCCC1c1cccnc1 (stereo not shown) [nicotine], the “reduction of medication-induced dyskinesias” value [2] is given as at most 50% and the “side effects on use for treatment” value [3] is given as “without side effects such as tachyphylaxis”.
